Data: patent publication US20100093764A1, “AMINES AND SULFOXIDES OF THIENO[2,3-d]PYRIMIDINE AND THEIR USE AS ADENOSINE A2a RECEPTOR ANTAGONISTS” (priority 2008, published 2010)
Counter-ions that a name gives are not always drawn.

Experiments:
[1] = target: T1, human adenosine A1 receptor (Homo sapiens, UniProt P30542); experiment: Adenosine A1 Receptor Functional Assay (A1GAL2); type: cell-based; conditions: CHO-K1 cells overexpressing human A1 receptor, cAMP inducible beta-galactosidase reporter, 4 nM r-PIA/1 uM Forskolin agonist challenge
T1 construct: expressed in transfected cells; host or cells: CHO-K1 cells with a cAMP inducible beta-galactosidase reporter gene
T1 sequence (P30542 1-326): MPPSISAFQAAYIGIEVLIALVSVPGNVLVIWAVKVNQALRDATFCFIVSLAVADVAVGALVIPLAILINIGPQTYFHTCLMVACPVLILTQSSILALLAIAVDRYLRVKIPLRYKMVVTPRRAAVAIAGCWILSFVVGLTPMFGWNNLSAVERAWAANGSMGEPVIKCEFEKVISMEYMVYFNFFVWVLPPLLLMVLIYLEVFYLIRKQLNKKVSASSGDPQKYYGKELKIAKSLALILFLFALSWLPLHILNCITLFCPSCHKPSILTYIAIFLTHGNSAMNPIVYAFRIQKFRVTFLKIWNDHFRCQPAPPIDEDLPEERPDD
Experimental: Adenosine A1 Receptor Functional Assay (A1GAL2)
(§1) To initiate the functional assay, cryopreserved CHO—K1 cells overexpressing the human adenosine A1 receptor and containing a cAMP inducible beta-galactosidase reporter gene were thawed, centrifuged, DMSO containing media removed, and then seeded with fresh culture media into clear 384-well tissue culture treated plates (BD #353961) at a concentration of 10K cells/well. Prior to assay, these plates were cultured for two days at 37° C., 5% CO2, 90% Rh. On the day of the functional assay, culture media was removed and replaced with 45 uL assay medium (Hams/F-12 Modified (Mediatech #10-080CV) supplemented w/0.1% BSA). Test compounds were diluted and 11 point curves created at a 1000× concentration in 100% DMSO. Immediately after addition of assay media to the cell plates, 50 nL of the appropriate test compound antagonist or agonist control curves were added to cell plates using a Cartesian Hummingbird. Compound curves were allowed to incubate at room temperature on cell plates for approximately 15 minutes before addition of a 4 nM r-PIA (Sigma P4532)/1 uM Forskolin (Sigma F3917) agonist challenge (5 uL volume). A control curve of r-PIA in 1 uM Forskolin, a DMSO/Media control, and a single dose of Forskolin were also included on each plate. After additions, cell plates were allowed to incubate at 37° C., 5% CO2, 90% Rh for 5.5-6 hours. After incubation, media was removed, and cell plates were washed 1× 50 uL with DPBS w/o Ca & Mg (Mediatech 21-031-CV). Into dry wells, 20 uL of 1× Reporter Lysis Buffer (Promega E3971 (diluted in dH2O from 5× stock)) was added to each well and plates frozen at −20° C. overnight. For β-galactosidase enzyme calorimetric assay, plates were thawed out at room temperature and 20 μL 2× assay buffer (Promega) was added to each well. Color was allowed to develop at 37° C., 5% CO2, 90% Rh for 1-1.5 h or until reasonable signal appeared. The calorimetric reaction was stopped with the addition of 60 μL/well 1M sodium carbonate. Plates were counted at 405 nm on a SpectraMax Microplate Reader (Molecular Devices). Data was analyzed in Microsoft Excel and IC/EC50 curves were fit using a standardized macro.

[2] = target: T2, human adenosine A2a receptor (Homo sapiens, UniProt P29274); experiment: Adenosine A2a Receptor Functional Assay (A2AGAL2); type: cell-based; conditions: CHO-K1 cells overexpressing human A2a receptor, cAMP inducible beta-galactosidase reporter, 15 nM NECA agonist challenge
T2 construct: expressed in transfected cells; host or cells: CHO-K1 cells with a cAMP inducible beta-galactosidase reporter gene
Experimental: Adenosine A2a Receptor Functional Assay (A2AGAL2)
as §1, with “adenosine A2a” for “adenosine A1”, “a 15” for “a 4”, “nM NECA” for “nM r-PIA”, “(Sigma E2387)” for “(Sigma P4532)/1 uM Forskolin (Sigma F3917)”, “of NECA,” for “of r-PIA in 1 uM Forskolin,”, “Forskolin (Sigma F3917)” for “Forskolin”

T2 sequence (P29274 whole entry): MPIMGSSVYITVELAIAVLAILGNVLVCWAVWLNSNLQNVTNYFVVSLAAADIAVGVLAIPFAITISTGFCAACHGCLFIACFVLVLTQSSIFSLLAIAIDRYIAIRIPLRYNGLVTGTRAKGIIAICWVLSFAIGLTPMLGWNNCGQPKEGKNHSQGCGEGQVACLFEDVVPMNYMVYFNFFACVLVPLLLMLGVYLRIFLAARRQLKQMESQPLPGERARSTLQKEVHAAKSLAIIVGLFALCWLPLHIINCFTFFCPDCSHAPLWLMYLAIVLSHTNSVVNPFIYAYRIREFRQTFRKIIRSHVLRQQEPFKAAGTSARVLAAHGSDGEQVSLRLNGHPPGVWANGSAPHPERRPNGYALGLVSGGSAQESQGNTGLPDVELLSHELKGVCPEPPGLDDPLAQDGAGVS

Structure (SMILES) | Ki [1] | Ki [2]
N#Cc1cccc(-c2nc(N)c3cc(Nc4ccccc4)sc3n2)c1 [Example 1, (4-Amino-6-phenylamino-thieno[2,3-d]pyrimidin-2-yl)-benzonitrile] | 1.15 µM | 0.0894 µM
COc1ccccc1Nc1cc2c(N)nc(-c3cccc(C#N)c3)nc2s1 [Example 2, 3-[4-Amino-6-(2-methoxy-phenylamino)-thieno[2,3-d]pyrimidin-2-yl]-benzonitrile] | 0.269 µM | 0.0114 µM
COc1ccccc1N(C)c1cc2c(N)nc(-c3cccc(C#N)c3)nc2s1 [Example 3, 3-{4-Amino-6-[(2-methoxy-phenyl)-methyl-amino]-thieno[2,3-d]pyrimidin-2-yl}-benzonitrile] | 0.569 µM | 0.103 µM
N#Cc1cccc(-c2nc(N)c3cc(Nc4ccccn4)sc3n2)c1 [Example 4, 3-[4-Amino-6-(pyridin-2-ylamino)-thieno[2,3-d]pyrimidin-2-yl]-benzonitrile] | 0.765 µM | 0.0844 µM
CN(c1ccccc1)c1cc2c(N)nc(-c3cccc(C#N)c3)nc2s1 [Example 5, 3-[4-Amino-6-(methyl-phenyl-amino)-thieno[2,3-d]pyrimidin-2-yl]-benzonitrile] | 2.33 µM | 0.127 µM
COc1cccc(Nc2cc3c(N)nc(-c4cccc(C#N)c4)nc3s2)c1 [Example 6, 3-[4-Amino-6-(3-methoxy-phenylamino)-thieno[2,3-d]pyrimidin-2-yl]-benzonitrile-hydrochloride] | 2.37 µM | 0.261 µM
N#Cc1cccc(-c2nc(N)c3cc(Nc4ccccc4Cl)sc3n2)c1 [Example 7, 3-[4-Amino-6-(2-chloro-phenylamino)-thieno[2,3-d]pyrimidin-2-yl]-benzonitrile-hydrochloride] | 2.27 µM | 0.23 µM
CN(c1cc2c(N)nc(-c3cccc(C#N)c3)nc2s1)c1ccccc1Cl [Example 8, 3-{4-Amino-6-[(2-chloro-phenyl)-methyl-amino]-thieno[2,3-d]pyrimidin-2-yl}-benzonitrile] | 2.77 µM | 0.316 µM
COc1cccc(N(C)c2cc3c(N)nc(-c4cccc(C#N)c4)nc3s2)c1 [Example 9, 3-{4-Amino-6-[(3-methoxy-phenyl)-methyl-amino]-thieno[2,3-d]pyrimidin-2-yl}-benzonitrile-hydrochloride] | 2.54 µM | 0.273 µM
N#Cc1cccc(-c2nc(N)c3cc(Nc4ccccc4F)sc3n2)c1 [Example 10, 3-[4-Amino-6-(2-fluoro-phenylamino)-thieno[2,3-d]pyrimidin-2-yl]-benzonitrile] | 2.6 µM | 0.131 µM
CN(c1cccc(F)c1)c1cc2c(N)nc(-c3cccc(C#N)c3)nc2s1 [Example 11, 3-{4-Amino-6-[(3-fluoro-phenyl)-methyl-amino]-thieno[2,3-d]pyrimidin-2-yl}-benzonitrile] | 5.23 µM | 0.398 µM
N#Cc1cccc(-c2nc(N)c3cc(S(=O)(=O)c4ccccc4)sc3n2)c1 [Example 12, 3-(4-Amino-6-benzenesulfonyl-thieno[2,3-d]pyrimidin-2-yl)-benzonitrile] | 0.358 µM | 0.0157 µM
